What was measured:
[1] = tested on: guinea pig cough model (citric acid and histamine); assay: Guinea pig cough response model (dose response); format: in vivo; conditions: for reduction in cough vs. control: 2 hours prior to citric acid and histamine, coughs counted 15 minutes, statistically significant; for reduction in cough frequency as compared to the control (dose dependence): 0.3, 3 and 30 mg/kg oral
Description: The anti-tussive effect of Compound 1 was compared to that of AF-219 in a guinea pig cough model. Guinea pigs are the most commonly used animal in cough studies for both the investigation of the cough reflex at a fundamental level and for use as an antitussive screen (Mackensie et al., Drug Discovery Today, 2004, 1, 297-302). In the guinea pig, it was shown that exposure to ATP and histamine aerosols increases cough responses to tussive stimuli via P2X3 receptor-mediated mechanisms (Kamei et al., Eur J Pharmacol (2005) 528: 158-161; Kamei et al., Eur J Pharmacol (2006) 547: 160-164).
(§1) Treatments (control, Compound 1 (0.3, 3 and 30 mg/kg) or AF-219 (0.3, 3 or 30 mg/kg)) were administered orally in seven groups of 6 animals 2 hours prior to tussive agent exposure (citric acid and histamine) and the number of coughs were counted for a period of 15 minutes.

taste function = assay: Two bottle taste study (water vs quinine); format: in vivo, rat; conditions: 10 or 20 mg/kg intraperitoneally; for effect on taste function: rat; for quinine drunk relative to control: rats water-fasted overnight, volume measured for 15 minutes at Cmax
Method: A rat taste model was used to compare the effect of Compound 1 on taste function with that of AF-219. Animals were water-fasted overnight and presented with one bottle of water and one bottle of (bitter-tasting) quinine at the time corresponding to the maximum plasma concentration of study drugs; and the volume of liquid consumed from each bottle was measured for 15 minutes. Treatments (control, Compound 1 (10 or 20 mg/kg) or AF-219 (10 or 20 mg/kg)) were administered intraperitoneally in two groups of 10 rats.

[2] = tested on: guinea pig cough model (citric acid and histamine); assay: Time course study in guinea pig cough response model; format: in vivo; conditions: single oral 30 mg/kg; for anti-tussive effect (significance): 8 hours post-dose
Method: as §1
Using the same guinea pig cough model as described in Example 2, a time course study was conducted to assess the duration of the anti-tussive effect of Compound 1 and AF-219 following the administration of a single oral 30 mg/kg dose. In this study, animals in groups of 6 were exposed to tussive agents (citric acid and histamine) at various times after the administration of the study drugs (2, 4, 6, 8 and 12 hours post-dose for Compound 1; and 2 and 8 hours post-dose for AF-219) and the number of coughs were measured for 15 minutes.

[3] = tested on: P2X3 and P2X2/P2X3 channel; assay: Fluo-8 calcium assay, antagonism of P2X3 versus P2X2/P2X3 channels in HEK293 cells; format: cell-based; conditions: human P2X3 and P2X2/P2X3 in HEK293 cells, meATP stimulation; IC50s only in FIG. 3
Method: The ability of the compounds described herein and Gefapixant (also known as AF-219) to act as an antagonist of the P2X3 and P2X2/P2X3 channel (encoded by the human P2RX2 and P2RX3 genes, stably expressed in HEK293 cells) was evaluated with a Fluo-8 calcium kit. Compounds 1, 2, 9, 11, 15, and AF-219 were evaluated at twelve concentrations.
For the antagonist effect assessment, the cells were pre-incubated with Compounds 1, 2, 9, 11, 15, and AF-219 for 20 minutes, then stimulated with the P2X3 and P2X2/P2X3 agonist α,β-methyleneATP (meATP) at final concentrations of 3 μM and 30 μM. Four minutes fifty seconds after addition of meATP, ionomycin was added at a final concentration of 5 μM in order to obtain the maximum calcium influx and fluorescence signal possible from the cells. Fluorescence was recorded continuously for 10 minutes, starting 10 seconds prior to the addition of meATP.

Structure (SMILES) | reduction in cough vs. control ([1]; 30 mg/kg oral) [%] | reduction in cough frequency as compared to the control (dose dependence) [1] | effect on taste function (taste function) | quinine drunk relative to control (taste function) | duration of anti-tussive effect [2] | reduction in cough frequency compared to control (significance) ([2]; 2 hours post-dose) | anti-tussive effect (significance) [2] | selectivity as P2X3 antagonist (P2X3 versus P2X2/3) [3] | further results
COc1cc(C(C)C)c(Oc2cnc(N)nc2N)cc1S(N)(=O)=O [AF-219, Gefapixant, reference compound] | 45 | comparable dose-dependent reduction in cough frequency | altered taste function | approximately 5 times | comparable duration of effect | statistically significant | no longer significant |  | 
CNC(=O)c1cc(F)c(-c2nc3cc(C)ccn3c2C[C@H]2CN(C(=O)OC)CCO2)c(F)c1 [Compound 1] | 52 | comparable dose-dependent reduction in cough frequency | did not | did not drink more quinine than the control animals | comparable duration of effect | statistically significant | no longer significant | selective P2X3 antagonists | reduction in cough vs. control ([1]; 3 mg/kg oral): 39%; reduction in cough frequency compared to control (significance) ([2]; 4 hours post-dose): statistically significant; reduction in cough frequency compared to control (significance) ([2]; 6 hours post-dose): statistically significant
CCC(=O)N1CCO[C@@H](Cc2c(-c3c(F)cc(C(=O)NC)cc3F)nc3cc(C)ccn23)C1 [Compound 2] |  |  |  |  |  |  |  | selective P2X3 antagonists | 
CNC(=O)c1cc(F)c(-c2nc3cc(C)ccn3c2C[C@H]2CN(C(C)=O)CCO2)cc1F [Compound 9] |  |  |  |  |  |  |  | selective P2X3 antagonists | 
CNC(=O)c1ccc(-c2nc3cc(Cl)ccn3c2C[C@H]2CN(C(C)=O)CCO2)c(C)c1 [Compound 11] |  |  |  |  |  |  |  | selective P2X3 antagonists | 
CNC(=O)c1cc(F)c(-c2nc3cc(Cl)ccn3c2C[C@H]2CN(C(C)=O)CCO2)c(F)c1 [Compound 15] |  |  |  |  |  |  |  | selective P2X3 antagonists | 

From US10111883B1, “Selective P2X3 modulators” (BELLUS Health inc., priority 2017, dated 2018)
